# System: 301 cancer cell lines from different tumor types
# Experiment: 2D cell viability inhibition assay, broad cancer cell line panel (OncoPanel; CellTiter-Glo)
# Type: cell-based
# Design: key to Emax: % of DMSO control (minimum response over dose range); AUC: scale not given here
# Details: for AUC / Emax: 168 hours; for Emax: in % (unit assumed)
# Method: In a larger screening study, compound 1 was evaluated across a broad cancer cell line panel (OncoPanel; HD Biosciences) composed of 301 cancer cell lines from different tumor types.
# 2D cell viability inhibition assays were performed in multiwell plates seeded with cells from the panel. After seeding, the plates were cultured overnight in a humidified incubator at 37° C. to promote adherence. Assays were initiated in individual wells by adding either DMSO as a vehicle control, growth media as a blank, or serially diluted compound 1 (10 μM to 0.0005 μM with 1:3 serial dilution). Cultures were incubated for 168 hours after which the number of viable cells in each test well was assessed using the CellTiter-Glo® Luminescent Cell Viability Assay. Luminescence readouts were performed using an EnVision® Multilabel Reader and the compound 1 readouts were normalized to the DMSO control readouts, expressed as a percent of the control. Outliers were flagged out by visual inspection. Percent of control was plotted against the corresponding compound 1 concentration and the absolute IC50 value was determined using four-parameter logistic non-linear regression as the concentration where inhibition was 50% of the control. […] Emax was recorded as the minimum in y with the compound dose range. […] The sensitive/moderate/resistant calls for each cell line was determined by visually inspecting the resulting clustering dendrogram. All the analyses were done in R Core Team.
# [1] = 168 h, HUH28 (biliary tract, NS)
# [2] = 168 h, KG1 (haematopoietic and lymphoid tissue, acute myeloid leukaemia)
# [3] = 168 h, KURAMOCHI (ovary, undifferentiated carcinoma)
# [4] = 168 h, NMCG1 (central nervous system, NS)
# [5] = 168 h, T24 (urinary tract, transitional cell carcinoma)
# [6] = 168 h, TE1 (oesophagus, squamous cell carcinoma)
# [7] = 168 h, TE8 (oesophagus, squamous cell carcinoma)
# [8] = BT20 (breast, ductal carcinoma)
# [9] = BT474 (breast, ductal carcinoma)
# [10] = C2BBE1 (large intestine, adenocarcinoma)
# [11] = CAL27 (upper aerodigestive tract, squamous cell carcinoma)
# [12] = CALU1 (lung, squamous cell carcinoma)
# [13] = CAPAN2 (pancreas, ductal carcinoma)
# [14] = CCFSTTG1 (central nervous system, astrocytoma)
# [15] = DAOY (central nervous system, NS)
# [16] = DMS53 (lung, small cell carcinoma)
# [17] = HCC38 (breast, ductal carcinoma)
# [18] = HCC1419 (breast, ductal carcinoma)
# [19] = HCC1937 (breast, ductal carcinoma)
# [20] = Homo sapiens, A204, 168 h, A204 (soft tissue, NS)
# [21] = Homo sapiens, BT-20, 168 h, BT20 (breast, ductal carcinoma)
# [22] = Homo sapiens, BT-474, 168 h, BT474 (breast, ductal carcinoma)
# [23] = Homo sapiens, C2BBe1, 168 h, C2BBE1 (large intestine, adenocarcinoma)
# [24] = Homo sapiens, CAL-27, 168 h, CAL27 (upper aerodigestive tract, squamous cell carcinoma)
# [25] = Homo sapiens, CCF-STTG1, 168 h, CCFSTTG1 (central nervous system, astrocytoma)
# [26] = Homo sapiens, Calu-1, 168 h, CALU1 (lung, squamous cell carcinoma)
# [27] = Homo sapiens, Calu-3, 168 h, CALU3 (lung, adenocarcinoma)
# [28] = Homo sapiens, Capan-2, 168 h, CAPAN2 (pancreas, ductal carcinoma)
# [29] = Homo sapiens, DMS-53, 168 h, DMS53 (lung, small cell carcinoma)
# [30] = Homo sapiens, Daoy, 168 h, DAOY (central nervous system, NS)
# [31] = Homo sapiens, G-361, 168 h, G361 (skin, NS)
# [32] = Homo sapiens, HCC38, 168 h, HCC38 (breast, ductal carcinoma)
# [33] = Homo sapiens, HCC827, 168 h, HCC827 (lung, adenocarcinoma)
# [34] = Homo sapiens, HCC1419, 168 h, HCC1419 (breast, ductal carcinoma)
# [35] = Homo sapiens, HCC1428, 168 h, HCC1428 (breast, NS)
# [36] = Homo sapiens, HCC1937, 168 h, HCC1937 (breast, ductal carcinoma)
# [37] = Homo sapiens, HT-144, 168 h, HT144 (skin, NS)
# [38] = Homo sapiens, Hs 695T, 168 h, HS695T (skin, NS)
# [39] = Homo sapiens, KYSE-70, 168 h, KYSE70 (oesophagus, squamous cell carcinoma)
# [40] = Homo sapiens, Kasumi 1, 168 h, KASUMI1 (haematopoietic and lymphoid tissue, acute myeloid leukaemia)
# [41] = Homo sapiens, Lu-99, 168 h, LU99 (lung, large cell carcinoma)
# [42] = Homo sapiens, MDA-MB-157, 168 h, MDAMB157 (breast, ductal carcinoma)
# [43] = Homo sapiens, MDA-MB-175-VII, 168 h, MDAMB 175 VII (breast, ductal carcinoma)
# [44] = Homo sapiens, MDA-MB-231, 168 h, MDAMB231 (breast, NS)
# [45] = Homo sapiens, MDA-MB-361, 168 h, MDAMB361 (breast, NS)
# [46] = Homo sapiens, MDA-MB-415, 168 h, MDAMB415 (breast, NS)
# [47] = Homo sapiens, MDA-MB-436, 168 h, MDAMB436 (breast, NS)
# [48] = Homo sapiens, MDA-MB-468, 168 h, MDAMB468 (breast, NS)
# [49] = Homo sapiens, Malme-3M, 168 h, MALME3M (skin, NS)
# [50] = Homo sapiens, MeWo, 168 h, MEWO (skin, NS)
# [51] = Homo sapiens, NCI-H441, 168 h, NCIH441 (lung, adenocarcinoma)
# [52] = Homo sapiens, NCI-H596, 168 h, NCIH596 (lung, mixed adenosquamous carcinoma)
# [53] = Homo sapiens, NCI-H1395, 168 h, NCIH1395 (lung, adenocarcinoma)
# [54] = Homo sapiens, NCI-H1563, 168 h, NCIH1563 (lung, adenocarcinoma)
# [55] = Homo sapiens, NCI-H1573, 168 h, NCIH1573 (lung, adenocarcinoma)
structure (smiles),measurement,setting,value
"CC(C)c1ccc(N(C)c2ccc3c(c2)OCC[C@H]3CNc2cnccc2C(=O)O)cc1 [Compound 1, 3-({[(4R)-7-{methyl[4-(propan-2-yl)phenyl]amino}-3,4-dihydro-2H-1-benzopyran-4-yl]methyl}amino)pyridine-4-carboxylic acid]",EC50,"168 h, HS688AT (skin, NS)",≥ 10 µM
same,IC50,"168 h, HS688AT (skin, NS)",≥ 10 µM
same,EC50,"168 h, HS739T (breast, NS)",≥ 10 µM
same,IC50,"168 h, HS739T (breast, NS)",≥ 10 µM
same,EC50,"168 h, HS839T (skin, NS)",≥ 10 µM
same,IC50,"168 h, HS839T (skin, NS)",≥ 10 µM
same,EC50,"168 h, HS852T (skin, NS)",≥ 10 µM
same,IC50,"168 h, HS852T (skin, NS)",≥ 10 µM
same,EC50,[1],≥ 10 µM
same,IC50,[1],≥ 10 µM
same,EC50,[2],≥ 10 µM
same,IC50,[2],≥ 10 µM
same,EC50,[3],≥ 10 µM
same,IC50,[3],≥ 10 µM
same,EC50,[4],≥ 10 µM
same,IC50,[4],≥ 10 µM
same,EC50,"168 h, SKMEL31 (skin, NS)",≥ 10 µM
same,IC50,"168 h, SKMEL31 (skin, NS)",≥ 10 µM
same,EC50,[5],≥ 10 µM
same,IC50,[5],≥ 10 µM
same,EC50,[6],≥ 10 µM
same,IC50,[6],≥ 10 µM
same,EC50,[7],≥ 10 µM
same,IC50,[7],≥ 10 µM
same,AUC,"A204 (soft tissue, NS)",0.7136
same,Emax,"A204 (soft tissue, NS)",58.91
same,AUC,[8],0.9117
same,Emax,[8],78.79
same,AUC,[9],0.7206
same,Emax,[9],53.88
same,AUC,[10],0.8303
same,Emax,[10],59.34
same,AUC,[11],0.8335
same,Emax,[11],74.68
same,AUC,[12],1.217
same,Emax,[12],118.4694
same,AUC,"CALU3 (lung, adenocarcinoma)",0.7277
same,Emax,"CALU3 (lung, adenocarcinoma)",50.88
same,AUC,[13],0.8808
same,Emax,[13],75.02
same,AUC,[14],0.879
same,Emax,[14],78.9
same,AUC,[15],0.9684
same,Emax,[15],83.4
same,AUC,[16],0.7426
same,Emax,[16],49.07
same,AUC,"G361 (skin, NS)",1.044
same,Emax,"G361 (skin, NS)",89.52
same,AUC,[17],0.9864
same,Emax,[17],93.61
same,AUC,"HCC827 (lung, adenocarcinoma)",0.8814
same,Emax,"HCC827 (lung, adenocarcinoma)",74.84
same,AUC,[18],0.7201
same,Emax,[18],52.42
same,AUC,"HCC1428 (breast, NS)",0.7818
same,Emax,"HCC1428 (breast, NS)",59.9889
same,AUC,[19],0.9094
same,Emax,[19],80.9493
same,AUC,"HS688AT (skin, NS)",1.105
same,Emax,"HS688AT (skin, NS)",98.47
same,AUC,"HS695T (skin, NS)",0.9238
same,Emax,"HS695T (skin, NS)",74.11
same,AUC,"HS739T (breast, NS)",0.8686
same,Emax,"HS739T (breast, NS)",78.35
same,AUC,"HS839T (skin, NS)",1.097
same,Emax,"HS839T (skin, NS)",101.2434
same,AUC,"HS852T (skin, NS)",0.883
same,Emax,"HS852T (skin, NS)",78.51
same,AUC,"HT144 (skin, NS)",0.8912
same,Emax,"HT144 (skin, NS)",81.61
same,AUC,"HUH28 (biliary tract, NS)",0.9862
same,Emax,"HUH28 (biliary tract, NS)",92.15
same,EC50,[20],≥ 10 µM
same,IC50,[20],≥ 10 µM
same,EC50,[21],≥ 10 µM
same,IC50,[21],≥ 10 µM
same,EC50,[22],≥ 10 µM
same,IC50,[22],≥ 10 µM
same,EC50,[23],≥ 10 µM
same,IC50,[23],≥ 10 µM
same,EC50,[24],≥ 10 µM
same,IC50,[24],≥ 10 µM
same,EC50,[25],≥ 10 µM
same,IC50,[25],≥ 10 µM
same,EC50,[26],≥ 10 µM
same,IC50,[26],≥ 10 µM
same,EC50,[27],≥ 10 µM
same,IC50,[27],≥ 10 µM
same,EC50,[28],≥ 10 µM
same,IC50,[28],≥ 10 µM
same,EC50,[29],≥ 10 µM
same,IC50,[29],≥ 10 µM
same,EC50,[30],≥ 10 µM
same,IC50,[30],≥ 10 µM
same,EC50,[31],≥ 10 µM
same,IC50,[31],≥ 10 µM
same,EC50,[32],≥ 10 µM
same,IC50,[32],≥ 10 µM
same,EC50,[33],≥ 10 µM
same,IC50,[33],≥ 10 µM
same,EC50,[34],≥ 10 µM
same,IC50,[34],≥ 10 µM
same,EC50,[35],≥ 10 µM
same,IC50,[35],≥ 10 µM
same,EC50,[36],≥ 10 µM
same,IC50,[36],≥ 10 µM
same,EC50,[37],≥ 10 µM
same,IC50,[37],≥ 10 µM
same,EC50,[38],≥ 10 µM
same,IC50,[38],≥ 10 µM
same,EC50,[39],≥ 10 µM
same,IC50,[39],≥ 10 µM
same,EC50,[40],≥ 10 µM
same,IC50,[40],≥ 10 µM
same,EC50,[41],≥ 10 µM
same,IC50,[41],≥ 10 µM
same,EC50,[42],≥ 10 µM
same,IC50,[42],≥ 10 µM
same,EC50,[43],≥ 10 µM
same,IC50,[43],≥ 10 µM
same,EC50,[44],≥ 10 µM
same,IC50,[44],≥ 10 µM
same,EC50,[45],≥ 10 µM
same,IC50,[45],≥ 10 µM
same,EC50,[46],≥ 10 µM
same,IC50,[46],≥ 10 µM
same,EC50,[47],≥ 10 µM
same,IC50,[47],≥ 10 µM
same,EC50,[48],≥ 10 µM
same,IC50,[48],≥ 10 µM
same,EC50,[49],≥ 10 µM
same,IC50,[49],≥ 10 µM
same,EC50,[50],≥ 10 µM
same,IC50,[50],≥ 10 µM
same,EC50,[51],≥ 10 µM
same,IC50,[51],≥ 10 µM
same,EC50,[52],≥ 10 µM
same,IC50,[52],≥ 10 µM
same,EC50,[53],≥ 10 µM
same,IC50,[53],≥ 10 µM
same,EC50,[54],≥ 10 µM
same,IC50,[54],≥ 10 µM
same,EC50,[55],≥ 10 µM
same,IC50,[55],≥ 10 µM

# Reference: patent publication US20250025451A1, “TREATMENT OF CANCER WITH KDM4 INHIBITORS” (Celgene Corporation, priority 2021, published 2025)
